Measurements published in US10428041B2, “Pyridyl reverse sulfonamides for HBV treatment” (Novira Therapeutics, Inc., priority 2014, dated 2019).

Test system: HBV replication in HepG2-2.2.15 cells
Test: Inhibition of HBV replication dot-blot assay
Type: cell-based
Conditions: Hepatitis B virus, 144 h, reduction in HBV DNA levels, six days
Protocol: Compounds active in the HBV assembly assay are tested for their activity and toxicity in cellular assay. In the first anti-viral assay, the ability of compounds to inhibit HBV replication in an HBV-producing hepatoma cell line using the dot-blot method is evaluated.
(§1) Briefly, confluent monolayers of HepG2-2.2.15 cells are incubated with complete medium containing various concentrations of a test compound. Three days later, the culture medium is replaced with fresh medium containing the appropriately diluted test compound. Six days following the initial administration of the test compound, the cell culture supernatant is collected, and cell lysis is performed. The samples are applied onto Nylos membranes and DNA is immobilized to the membrane by UV cross-linking. After pre-hybridization, the HBV probe is added and the hybridization is performed overnight. The membranes are exposed to the KODAK films; antiviral activity is calculated from the reduction in HBV DNA levels (EC50). The EC50 for antiviral activity is calculated from the dose response curves of active compounds. Assay performance over time is monitored by the use of the standard positive control compounds ETV, BAY 41-4109, and HAP-1.
Selected compounds are tested for their activity and toxicity in cellular assay. In the first anti-viral assay, the ability of compounds to inhibit HBV replication in an HBV-producing hepatoma cell line using the dot-blot method is evaluated.
as §1, with “Confluent monolayers” for “Briefly, confluent monolayers”, “lysis was” for “lysis is”

CS(=O)(=O)Nc1cc(C(=O)Nc2ccc(F)c(Cl)c2)ccn1 [Compound 35, N-(3-Chloro-4-fluorophenyl)-2-(methylsulfonamido)isonicotinamide]
EC50: < 10 µM

O=C(Nc1ccc(F)c(Cl)c1)c1ccnc(NS(=O)(=O)CC2CC2)c1 [Compound 36, N-(3-Chloro-4-fluorophenyl)-2-(cyclopropylmethylsulfonamido)isonicotinamide]
EC50: < 10 µM

O=C(Nc1ccc(F)c(Cl)c1)c1ccnc(NS(=O)(=O)CCc2ccccc2)c1 [Compound 21, N-(3-Chloro-4-fluorophenyl)-2-(2-phenylethylsulfonamido)isonicotinamide]
EC50: < 10 µM

O=C(Nc1ccc(F)c(Cl)c1)c1ccnc(NS(=O)(=O)CCC2CC2)c1 [Compound 23, N-(3-Chloro-4-fluorophenyl)-2-(2-cyclopropylethylsulfonamido)isonicotinamide]
EC50: < 10 µM
